Consider 13 substances from patent US20090176714A1, “METHOD OF REDUCING THE EFFECTS OF ABeta AND COMPOSITIONS THEREFORE” (priority 2004, published 2009).

No end group written: not given here. A value given as a limit tells only on which side of the number the result lay.

For one assay, the system named is human cortical slices. The experiment in a line: Aβ-induced cell death (EthD-1/calcein AM) in human organotypic cortical cultures. In kind it is cell-based. As to conditions: for Protection against the Aβ-induced EthD-1 staining: FIG. 6C. The source says:
Four patients with intractable epilepsy who had elected to undergo a temporal lobe resection were recruited for this study. […] However, the overlying temporal cortex is normal. The age of the subjects ranged from 20 to 49. Brain tissue was obtained with informed consent from all patients.
Brain tissue was removed in large, intact pieces by electrocautery. Tissue obtained from the temporal cortex was approximately 3 cm×2 cm×1.5-2 cm. Immediately following removal, the tissue was placed in ice-cold Neuregen-I media (Brainbits, Springfield, Ill.), a CO2 independent transport and holding medium, and transported to a tissue culture laboratory. Meninges were removed before cutting the tissue with a scalpel to produce blocks about 0.5-1 cm^3 such that each gyrus was kept as intact as possible and the cortical layers were preserved. As described previously, incisions were made perpendicular to the longitudinal axis of the gyrus and along the white matter (Verwer et al., Exp. Gerontol., 38:167-172 (2003)). A vibratome was used to cut 400 μm thick slices at a plane perpendicular to the longitudinal axis of the gyrus. Thus, all cortical layers and a small amount of white matter were included in a slice. Alternately, small tissue pieces, which were usually obtained from the hippocampus, were cut at 400 μm using a McIlwain tissue chopper. No more than 2 slices were placed on a filter insert with a 30 mm diameter and a 0.4 μm filter pore size (Millipore, Billerica, Mass.) held in 6-well culture plates. For the first 12 hours, slices were kept in 1-1.2 mL Neurobasal media with B-27 supplement, 0.5 mM glutamine, and 1% penicillin/streptomycin (Invitrogen). Subsequently, the media was changed every 2 days using 1 mL of media without antibiotics. Organotypic cultures were maintained in a humidified incubator at 37° C. in 5% O2, 5% CO2, and 90% N for 4 to 28 days.
(§1) Cell death and viability was determined on live slices using the fluorescent probes from Molecular Probes' Live/Dead Kit. After a 40 minute incubation in calcein AM (1:400) and ethidium homodimer (1:1000) in phosphate buffered saline, slices were visualized at 200× magnification with an inverted Nikon Diaphot 200 microscope using the Bio-Rad MRC-1024 Laser Scanning Confocal system (Hercules, Calif.). Random images were captured at the emission spectrum of each probe, and Scion Image software (Frederick, Md.) was used to quantify the number of live and dead cells. At least three areas were imaged and used to determine the percent death for each slice. The percent death was calculated as the number of EthD-1 positive cells divided by the total number of EthD-1 and calcein AM positive cells.
β-amyloid1-42 and reverse Aβ (Aβ42-1) were obtained from BACHEM (Torrance, Calif.). These peptides were dissolved in 0.1% NH3OH at 222 μM. For treatments, Aβ or reverse Aβ was aggregated at 50 μM in Neurobasal media with B-27 supplement and 0.5 mM glutamine at 37° C. for 24 hours. Then, the slice culture media was removed, and the slices were treated with 1 mL of 25 μM or 50 μM Aβ, reverse Aβ, or vehicle for 24 hour. Human TTR (Calbiochem) was added to slices together with the Aβ treatment at final concentrations of 0.03, 0.3, and 3 μM TTR. sAPPα was obtained from Sigma (St. Louis, Mo.). Unless otherwise stated, all sAPPα treatments were performed at 1 nM 48 hours prior to the addition of Aβ. The 10 amino acid fragment of the carboxyl-terminal region of sAPPα (592-601 of APP695; SEVKMDAEFR was added according to the same protocol for sAPPα. Because a variable amount of tissue was obtained from each patient, not all treatments were performed on all patients.

The test system of assay [1] is hippocampal slice cultures. Kind of assay: Aβ-induced cell death (EthD-1/calcein AM, % Death) in organotypic hippocampal slice cultures. In kind it is cell-based, mouse. As to the method:
Pups from C57B6/SJL mice were anaesthetized and decapitated at postnatal day 15. The brain was removed and placed in ice-cold dissecting medium (50% Minimum Essential Medium (Invitrogen, Carlsbad, Calif.), 50% Hank's Balanced Salt Solution (Invitrogen), 25 mM HEPES, and 36 mM glucose). Both hippocampi were dissected under a dissecting microscope and cut at 400 μm on a McIlwain tissue chopper. Slices were separated and placed on filter inserts with a 30 mm diameter and a 0.4 μm filter pore size (Millipore, Billerica, Mass.) held in 6-well culture plates. For the first 3 days, slices were kept in Neurobasal media with B-27 supplement, 1 mM glutamine, and 1% penicillin/streptomycin (Invitrogen). Subsequently, the media was changed every 3 days using media without antibiotics. Organotypic cultures were maintained in a humidified incubator at 37° C. in 5% O2 and 5% CO2 for 14 to 21 days.
as §1, with “images of the neuronal fields” for “images”, “areas including a neuronal field” for “areas”
β-amyloid1-42 and reverse Aβ (Aβ42-1) were obtained from BACHEM (Torrance, Calif.). These polypeptides were dissolved in 0.1% NH3OH at 222 μM. For treatments, Aβ was aggregated at 50 μM in Neurobasal media with B-27 supplement and 1 mM glutamine at 37° C. for 24 hours. Then, the slice culture media was removed, and the slices were treated with 1 mL of 25 μM or 50 μM Aβ, reverse Aβ, or vehicle for 24 hours. Human TTR (Calbiochem) or IGF-2 (Peprotech, Rocky Hill, N.J.) was added to slices together with the Aβ treatment at final concentrations of 3 μM (TTR) or 500 nM (IGF-2). sAPPα was prepared as described previously (Mattson et al., Neuron, 10:243-254 (1993)).
Unless otherwise stated, all sAPPα treatments were performed at 1 nM 48 hours prior to the addition of Aβ. Antibodies against TTR (C-20) or IGF-2 (F-20; 4 μg/mL; Santa Cruz) or sAPPα (6E10; 10 μg/mL; Chemicon) were added to slices together with the sAPPα treatment. Goat IgG (4 μg/mL; Santa Cruz) or mouse IgG1 (10 μg/mL; Chemicon) was added as a control. The 10 amino acid fragment of the carboxyl-terminal region of sAPPα (592-601 of APP695; SEVKMDAEFR; SEQ ID NO:1; Sigma) was added according to the same protocol for sAPPα.
SiRNA's were created based on the mouse mRNA sequences using the Ambion Silencer siRNA Construction Kit (Austin, Tex.). Several siRNA's were created by in vitro transcription for each silenced gene. Transfection was performed for 4 hours at 37° C. prior to vehicle or sAPPα treatment using 25 nM siRNA combined with the polyamines in the Ambion siPORT Amine Transfection Agent. Transfections were performed in Neurobasal media with 1 mM glutamine (Invitrogen). The successful mRNA target sequences are as follows, TTR: 5′-[…]-3′ (SEQ ID NO:16) and 5′-[…]-3′ (SEQ ID NO:17); IGF-2: 5′-AA-GGGGATAGAGATGTGAGAG-3′ (SEQ ID NO:18) and 5′-AAATTATGTGGT-AATTCTGCA-3′ (SEQ ID NO:19); IGF-1R: 5′-[…]-3′ (SEQ ID NO:20) and 5′-[…]-3′ (SEQ ID NO:21).
β-amyloid1-42 and reverse Aβ (Aβ42-1) were obtained from BACHEM (Torrance, Calif.). These peptides were dissolved in 0.1% NH3OH at 222 μM. For treatments, Aβ was aggregated at 50 μM in Neurobasal media with B-27 supplement and 1 mM glutamine at 37° C. for 24 hours. […]

The mark [2] stands for this setting: 48 h prior to 25 μM Aβ (24 h), FIG. 12B, 1 nM, final concentration of 1 mM.
The mark [3] stands for this setting: 1 nM 48 hours prior to 25 μM Aβ (24 hours), FIG. 7.
Setting [4] is: 1 nM 48 h prior to 25 μM Aβ (24 h), FIG. 12A.

With transthyretin [TTR], the “Protection against the Aβ-induced EthD-1 staining” value in the assay with human cortical slices (co-treatment with 0.03 μM) is given as “not”; in the assay with human cortical slices (co-treatment with 0.3 μM) it was “protected”; in the assay on human cortical slices (co-treatment with 3 μM), “protected”. Moreover, the “Concentrations that protect against Aβ toxicity” value in the assay on human cortical slices (human cortical slices, co-treatment with Aβ) is at least 0.3 µM. Besides, the “Protection against Aβ-induced death (% Death)” value (from here on “Protection … (% Death)”) in assay [1] (3 μM added together with Aβ, FIG. 4A) was “completely protected”.

As for D(dA)EF, the “Protection … (% Death)” value in assay [1] (setting [2]) is on record as “do not significantly protect”. On to “SEVKMDAEF [10 amino acid fragment with the carboxyl arginine eliminated]”, for which the “Protection … (% Death)” value in assay [1] (setting [3]) was “protection was maintained”. “R(9)-DAEF (RRRRRRRRRDAEF) [9 arginines added to the NH2-terminal end of the tetrapeptide]”: the “Protection … (% Death)” value in assay [1] (setting [4]) was “significantly protected”. Turning to “VKMDAEFR [fragment with the serine and glutamic acid eliminated]”, the “Protection … (% Death)” value in assay [1] (setting [3]) is “significantly protected”. As to acetyl-EADF (Ac-EADF), the “Protection … (% Death)” value in assay [1] (setting [2]) is reported as “does not”. Turning to (dD)AEF, the “Protection … (% Death)” value in assay [1] (setting [2]) is given as “do not significantly protect”. As for “EVKMDAEFR [fragment with the serine eliminated]”, the “Protection … (% Death)” value in assay [1] (setting [3]) is “significantly protected”.

“EADF-amide (EADF-NH2) [EADF (SEQ ID NO:5)-amide, aspartic acid and glutamic acid switched and an amide group attached to the COOH-terminus]”: in assay [1] (setting [2]), the “Protection … (% Death)” value is recorded as “significantly protects”. For “acetyl-DAEF (Ac-DAEF) [DAEF with the NH2-terminal end acetylated]”, the “Protection … (% Death)” value is listed as “did not protect to the same degree as the unmodified tetrapeptide” in assay [1] (setting [4]) and “significant protection” in assay [1] (1 nM 48 h prior to 25 μM Aβ (24 h), FIG. 12A, listed as Acetylated DAEF).

Regarding “SEVKMDAE [fragment with both arginine and phenylalanine eliminated]”, in assay [1] (setting [3]), the “Protection … (% Death)” value is on record as “reversed the protection”. For the substance insulin-like growth factor 2 [IGF-2], in assay [1] (500 nM added together with Aβ, FIG. 4A), the “Protection … (% Death)” value is recorded as “partially protected”. Consider DAE(dF), for which the “Protection … (% Death)” value in assay [1] (setting [2]) is on record as “do not significantly protect”.
